Laboratory results taken from ChEMBL document CHEMBL1201862, “PubChem BioAssay data set” (2004).
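Cultured in 96-well plates, cells were exposed to test compound for 48 hours across five concentrations. Abbreviation: GI50, concentration required for 50% inhibition of growth.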 Activity calls are given as the source filed them. No stated cut-off is given here; in the data, active = GI50 up to about 1.1 µM and inactive = higher.

Key:
Experiment in all cases: NCI tumour cell line growth inhibition, 48 h
SNB-19 = tested on: SNB-19
M14 = tested on: M14
PC-3 = tested on: PC-3
MDA-MB-231 = tested on: MDA-MB-231
SR = tested on: SR
MDA-N = tested on: MDA-N
BT-549 = tested on: BT-549
EKVX = tested on: EKVX
T47D = tested on: T47D
Hs-578T = tested on: Hs-578T
HCT-116 = tested on: HCT-116
TK-10 = tested on: TK-10
SW-620 = tested on: SW-620
HOP-92 = tested on: HOP-92
DU-145 = tested on: DU-145
MCF7 = tested on: MCF7
MOLT-4 = tested on: MOLT-4
MDA-MB-435 = tested on: MDA-MB-435

Measured: GI50

N#CCCN(CCN(CCC#N)C(=O)Nc1ccccc1)C(=O)Nc1ccccc1
inactive: SNB-19 32.7 µM | M14 > 100 µM | PC-3 69.3 µM | MDA-MB-231 > 100 µM | SR > 100 µM | MDA-N > 100 µM | BT-549 31 µM | EKVX 90.8 µM | T47D > 100 µM | Hs-578T 33.8 µM | HCT-116 49.3 µM | TK-10 > 100 µM | SW-620 > 100 µM | HOP-92 37.6 µM | DU-145 76.9 µM | MCF7 > 100 µM | MOLT-4 > 100 µM

CC1(CO)COS(=O)OC1 (stereo unspecified)
inactive: SNB-19 > 100 µM | PC-3 > 100 µM | MDA-MB-231 > 100 µM | MDA-MB-435 > 100 µM | SR > 100 µM | MDA-N > 100 µM | T47D > 100 µM | Hs-578T > 100 µM | HCT-116 > 100 µM | TK-10 > 100 µM | SW-620 > 100 µM | HOP-92 > 100 µM | DU-145 > 100 µM | MCF7 > 100 µM | MOLT-4 > 100 µM

Cc1ccc(O)c(C(c2ccc([N+](=O)[O-])cc2)c2cc(C)ccc2O)c1
inactive: SNB-19 13.1 µM | M14 11.7 µM | PC-3 3.59 µM | MDA-MB-231 12 µM | MDA-MB-435 10.9 µM | SR 3.98 µM | EKVX 14.3 µM | T47D 11.2 µM | Hs-578T 7.69 µM | HCT-116 14.4 µM | TK-10 16.3 µM | SW-620 13.5 µM | HOP-92 11.1 µM | DU-145 12.1 µM | MCF7 4.98 µM | MOLT-4 5.12 µM

O=C(O)C(=C\c1ccc2c(c1)OCO2)/C(=C/c1ccc2c(c1)OCO2)C(=O)O
inactive: SNB-19 > 100 µM | M14 > 100 µM | PC-3 > 100 µM | MDA-MB-435 > 100 µM | SR > 100 µM | MDA-N > 100 µM | BT-549 > 100 µM | T47D > 100 µM | Hs-578T > 100 µM | HCT-116 > 100 µM | TK-10 > 100 µM | SW-620 > 100 µM | HOP-92 > 100 µM | DU-145 > 100 µM | MCF7 > 100 µM | MOLT-4 > 100 µM

CC(C)CNc1nc2ncnc(N)c2[nH]1
inactive: SNB-19 > 100 µM | M14 > 100 µM | PC-3 > 100 µM | MDA-MB-231 > 100 µM | MDA-MB-435 > 100 µM | MDA-N > 100 µM | BT-549 > 100 µM | EKVX > 100 µM | T47D > 100 µM | Hs-578T > 100 µM | HCT-116 > 100 µM | TK-10 > 100 µM | SW-620 > 100 µM | HOP-92 56.8 µM | DU-145 > 100 µM | MCF7 > 100 µM | MOLT-4 > 100 µM

O=C(CCC(NC(=O)OCc1ccccc1)C(=O)OCc1ccccc1)Nc1cccc(OCc2ccccc2)c1 (stereo unspecified)
inactive: SNB-19 51.3 µM | M14 20.4 µM | PC-3 13.2 µM | MDA-MB-231 25.4 µM | MDA-MB-435 20 µM | SR 18.5 µM | MDA-N 32.1 µM | EKVX 35.6 µM | T47D 19.5 µM | Hs-578T 18.4 µM | HCT-116 19.2 µM | TK-10 29.4 µM | SW-620 33.6 µM | HOP-92 25 µM | DU-145 28.4 µM | MCF7 20.7 µM | MOLT-4 26.4 µM

Clc1ccc(CCn2ccc3ccccc32)c(Cl)c1
inactive: SNB-19 > 100 µM | M14 > 100 µM | PC-3 > 100 µM | MDA-MB-231 > 100 µM | MDA-MB-435 > 100 µM | SR > 100 µM | BT-549 > 100 µM | EKVX > 100 µM | Hs-578T > 100 µM | HCT-116 > 100 µM | TK-10 > 100 µM | SW-620 > 100 µM | HOP-92 > 100 µM | DU-145 > 100 µM | MCF7 > 100 µM | MOLT-4 > 100 µM

CC1(C)[C@H](C(=O)O)N2C(=O)[C@@H](NS(=O)(=O)c3ccc([N+](=O)[O-])cc3)[C@H]2S1(=O)=O
inactive: SNB-19 > 100 µM | M14 > 100 µM | PC-3 > 100 µM | MDA-MB-231 > 100 µM | MDA-MB-435 > 100 µM | MDA-N > 100 µM | BT-549 > 100 µM | EKVX > 100 µM | T47D > 100 µM | Hs-578T > 100 µM | HCT-116 > 100 µM | TK-10 > 100 µM | SW-620 > 100 µM | HOP-92 > 100 µM | DU-145 > 100 µM | MCF7 > 100 µM | MOLT-4 > 100 µM
